The results in this text go back to ChEMBL document CHEMBL6083201, “Identification of triazolyl KAT6 inhibitors via a templated fragment approach” (Bioorg Med Chem Lett, 2024).

The IC50 is the concentration that inhibits the measured activity by half.

This experiment addresses Histone acetyltransferase KAT6A (Homo sapiens, UniProt Q92794). Kind of experiment: Inhibition of KAT6A (unknown origin).

Histone acetyltransferase KAT6A, sequence (Q92794 whole entry): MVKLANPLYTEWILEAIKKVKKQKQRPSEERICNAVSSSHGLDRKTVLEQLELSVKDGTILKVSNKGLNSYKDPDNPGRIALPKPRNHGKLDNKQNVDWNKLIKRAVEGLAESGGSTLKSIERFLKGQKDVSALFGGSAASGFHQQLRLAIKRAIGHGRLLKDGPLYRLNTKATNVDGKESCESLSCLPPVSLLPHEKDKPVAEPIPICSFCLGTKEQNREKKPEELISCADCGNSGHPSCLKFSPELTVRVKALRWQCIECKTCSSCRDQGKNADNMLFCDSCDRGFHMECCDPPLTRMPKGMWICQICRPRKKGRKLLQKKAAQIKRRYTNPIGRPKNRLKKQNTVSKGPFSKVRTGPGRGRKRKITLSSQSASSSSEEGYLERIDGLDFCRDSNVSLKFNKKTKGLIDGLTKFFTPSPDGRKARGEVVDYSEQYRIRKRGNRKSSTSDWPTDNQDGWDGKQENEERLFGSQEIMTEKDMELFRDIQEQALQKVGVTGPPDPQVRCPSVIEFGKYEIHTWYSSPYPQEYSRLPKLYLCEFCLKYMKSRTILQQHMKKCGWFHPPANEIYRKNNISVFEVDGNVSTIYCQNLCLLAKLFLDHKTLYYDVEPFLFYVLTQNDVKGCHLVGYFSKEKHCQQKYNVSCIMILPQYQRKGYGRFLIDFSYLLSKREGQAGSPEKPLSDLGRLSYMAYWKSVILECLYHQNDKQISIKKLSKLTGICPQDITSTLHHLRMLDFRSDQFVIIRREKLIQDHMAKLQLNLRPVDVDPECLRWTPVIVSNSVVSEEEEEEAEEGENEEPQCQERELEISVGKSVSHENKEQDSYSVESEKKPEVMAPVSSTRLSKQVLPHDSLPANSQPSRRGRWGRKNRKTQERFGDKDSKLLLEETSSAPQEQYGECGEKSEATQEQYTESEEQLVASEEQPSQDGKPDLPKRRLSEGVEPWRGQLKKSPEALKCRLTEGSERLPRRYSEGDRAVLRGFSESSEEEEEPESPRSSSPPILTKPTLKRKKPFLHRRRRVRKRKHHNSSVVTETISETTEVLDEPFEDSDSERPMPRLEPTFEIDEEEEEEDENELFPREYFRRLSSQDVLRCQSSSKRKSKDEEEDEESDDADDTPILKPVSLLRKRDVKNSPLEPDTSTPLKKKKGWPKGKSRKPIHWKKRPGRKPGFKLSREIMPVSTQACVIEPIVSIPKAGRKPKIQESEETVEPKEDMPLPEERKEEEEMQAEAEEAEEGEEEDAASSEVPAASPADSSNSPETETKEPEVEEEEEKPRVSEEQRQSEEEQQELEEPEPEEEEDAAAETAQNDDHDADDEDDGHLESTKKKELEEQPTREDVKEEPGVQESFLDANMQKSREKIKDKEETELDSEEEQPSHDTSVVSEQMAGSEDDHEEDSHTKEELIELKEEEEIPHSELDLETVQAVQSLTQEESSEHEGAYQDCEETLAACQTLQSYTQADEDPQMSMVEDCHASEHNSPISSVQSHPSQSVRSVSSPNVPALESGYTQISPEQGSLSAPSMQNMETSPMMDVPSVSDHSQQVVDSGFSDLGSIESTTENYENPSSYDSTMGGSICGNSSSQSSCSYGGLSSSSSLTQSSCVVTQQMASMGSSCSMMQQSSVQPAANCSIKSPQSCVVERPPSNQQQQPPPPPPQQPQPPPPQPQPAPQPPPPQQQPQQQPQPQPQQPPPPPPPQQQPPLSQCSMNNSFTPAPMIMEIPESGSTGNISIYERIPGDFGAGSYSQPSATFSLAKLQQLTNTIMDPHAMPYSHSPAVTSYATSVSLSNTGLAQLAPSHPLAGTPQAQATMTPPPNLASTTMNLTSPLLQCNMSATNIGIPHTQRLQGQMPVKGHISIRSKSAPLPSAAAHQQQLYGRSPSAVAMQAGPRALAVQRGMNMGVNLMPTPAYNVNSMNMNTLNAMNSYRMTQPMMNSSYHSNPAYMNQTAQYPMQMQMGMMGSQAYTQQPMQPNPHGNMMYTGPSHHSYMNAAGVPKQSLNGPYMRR

The compound `COc1ccc(C2=CCN(C)CC2)cc1-n1cc(NS(=O)(=O)c2ccccc2)nn1` showed an IC50 of over 100 µM.
